Test results as given in ChEMBL document CHEMBL1201862, “PubChem BioAssay data set” (2004).
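Cultured in 96-well plates, cells were exposed to test compound for 48 hours across five concentrations. GI50: concentration for 50% inhibition of growth.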 Active and inactive are the calls of the source. Cut-off read from the data, not from the text of the source: active = GI50 up to about 1.1 µM and inactive = higher.

How the values were obtained:
Test in all cases: inhibition of tumour cell growth, NCI panel, 48 h
DLD-1 = system: DLD-1
DMS-273 = system: DMS-273
KM-20L2 = system: KM-20L2
LXFL 529 = system: LXFL 529
M19-MEL = system: M19-MEL
SNB-78 = system: SNB-78
XF498 = system: XF498
HOP-18 = system: HOP-18
RXF 631 = system: RXF 631

Structure (SMILES) | GI50 (DLD-1) | GI50 (DMS-273) | GI50 (KM-20L2) | GI50 (LXFL 529) | GI50 (M19-MEL) | GI50 (SNB-78) | GI50 (XF498) | GI50 (HOP-18) | GI50 (RXF 631)
Cc1ccc(C2NC(=O)c3ccccc3N2)s1 (stereo not given) | 5.02 µM (inactive) | 4.25 µM (inactive) | 4.55 µM (inactive) | 7.64 µM (inactive) | 6.12 µM (inactive) | 33.2 µM (inactive) | 3.21 µM (inactive) | – | –
BrCC[N+]12CCCN1CCC2 | 4.38 µM (inactive) | 18.7 µM (inactive) | 20.6 µM (inactive) | 2.88 µM (inactive) | 16.9 µM (inactive) | 16.2 µM (inactive) | – | 8.73 µM (inactive) | 21.1 µM (inactive)
C=CC[N+](CCO)(CCO)CCCCCCCCCCCCCCCCCC | 5.93 µM (inactive) | 2.26 µM (inactive) | 3.66 µM (inactive) | – | 3.34 µM (inactive) | 3.12 µM (inactive) | – | 8.34 µM (inactive) | –
C/C=C/c1cc2c(c(=O)o1)C(=O)[C@@H](O)[C@H](C)O2 | 6.28 µM (inactive) | 16 µM (inactive) | 16.1 µM (inactive) | – | 13.4 µM (inactive) | 18.8 µM (inactive) | – | 17.5 µM (inactive) | –
C=CCCCCn1c2ccccc2c2c(C)c3cnccc3c(C)c21 | 7.11 µM (inactive) | 5.14 µM (inactive) | 6.38 µM (inactive) | – | – | 12.1 µM (inactive) | 1.95 µM (inactive) | 16.1 µM (inactive) | –
COC[C@H](C)/N=C/N1CCc2ccccc2C1(Cc1ccccc1)Cc1ccccc1 | 8.18 µM (inactive) | – | 10.8 µM (inactive) | 11.8 µM (inactive) | – | – | 12.3 µM (inactive) | 11 µM (inactive) | 13.5 µM (inactive)
CCOC(=O)C1(Cc2ccc3ccccc3c2)CCCCC(=O)N1 (stereo not given) | 25.6 µM (inactive) | 13.5 µM (inactive) | 30.5 µM (inactive) | 38 µM (inactive) | 48.6 µM (inactive) | 52.7 µM (inactive) | 30.4 µM (inactive) | > 100 µM (inactive) | –
OCc1ccccc1C1CSCSC1 | > 100 µM (inactive) | > 100 µM (inactive) | – | > 100 µM (inactive) | > 100 µM (inactive) | > 100 µM (inactive) | > 100 µM (inactive) | – | –
CC1=C2[C@@H](c3ccccc3)C3C=CC2(C=C3C(F)(F)F)N(C(=O)NC2CCCCC2)C1=O (stereo not given in full) | > 100 µM (inactive) | 80 µM (inactive) | 93.1 µM (inactive) | 36.1 µM (inactive) | 54.6 µM (inactive) | 36.1 µM (inactive) | > 100 µM (inactive) | > 100 µM (inactive) | 39.7 µM (inactive)
N/C(S)=N/N=C/c1ccc(O)cn1 | 21.4 µM (inactive) | 3.75 µM (inactive) | – | 19.7 µM (inactive) | 11.1 µM (inactive) | – | 12.4 µM (inactive) | 27.1 µM (inactive) | 31.2 µM (inactive)
Cn1cc(C(=O)c2ccccc2)ccc1=O | > 100 µM (inactive) | > 100 µM (inactive) | > 100 µM (inactive) | > 100 µM (inactive) | > 100 µM (inactive) | > 100 µM (inactive) | > 100 µM (inactive) | – | –
Nc1c(/N=N/c2ccc(-c3ccc(/N=N/c4c(O)ccc5cc(S(=O)(=O)O)cc(S(=O)(=O)O)c45)cc3)cc2)c(S(=O)(=O)O)cc2cc(S(=O)(=O)O)c(/N=N/c3ccccc3)c(O)c12 | > 100 µM (inactive) | > 86.9 µM (inactive) | – | – | > 100 µM (inactive) | > 84.3 µM (inactive) | > 67.6 µM (inactive) | > 100 µM (inactive) | –
O=C(/C(=C/c1ccc(O)cc1)c1ccccc1)c1ccccc1 | 15.9 µM (inactive) | – | – | 16.4 µM (inactive) | 18.4 µM (inactive) | 24 µM (inactive) | – | 18.8 µM (inactive) | 15.3 µM (inactive)
CCCCCCCCCC/C=C/C=O | > 100 µM (inactive) | > 100 µM (inactive) | > 100 µM (inactive) | > 100 µM (inactive) | > 100 µM (inactive) | > 100 µM (inactive) | > 100 µM (inactive) | > 100 µM (inactive) | –
C1CCC(OCc2nnn3c2CCC3)OC1 (stereo not given) | > 100 µM (inactive) | – | > 100 µM (inactive) | > 100 µM (inactive) | > 100 µM (inactive) | > 100 µM (inactive) | > 100 µM (inactive) | < 0.01 µM (active) | –
CCOC(=O)C(=O)Nc1ccccc1CC | > 100 µM (inactive) | – | – | > 100 µM (inactive) | > 100 µM (inactive) | > 10 µM (inactive) | > 100 µM (inactive) | > 100 µM (inactive) | > 100 µM (inactive)
